From ChEMBL document CHEMBL2202982, “Synthesis and SAR development of novel mGluR1 antagonists for the treatment of chronic pain” (Bioorg Med Chem Lett, 2012)

Test: in vivo
Conditions: rat, po

In the case of `Cc1ccc(-n2cnc3c(sc4ncnc(NC5CC5)c43)c2=O)cc1`, the AUC(0-t) at 6 h is reported as 0.89 µM·h.
`COc1ccc(-n2cnc3c(sc4ncnc(NC5CC5)c43)c2=O)cc1F` gave an AUC(0-t) at 6 h of 8.6 µM·h.
